The test has as its target T1, recombinant full-length USP7 (Homo sapiens, UniProt Q93009).
T1 construct: A 25 μl reaction volume containing recombinant full-length USP7 (62 pM)
The test can be described thus: USP7-mediated ubiquitin-rhodamine cleavage assay. In kind it is biochemical. The following applies: recombinant full-length USP7 62 pM, ubiquitin-rhodamine 100 nM, 1 hour reaction at room temperature. The essentials: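 Full-length recombinant USP7 (62 pM) in 20 mM HEPES pH 7.3, 150 mM NaCl, 1 mM TCEP, 125 μg/ml BSA, 1% DMSO, preincubated with compound 30 min at RT. Ubiquitin-rhodamine (100 nM final) cleaved 1 h at RT in the dark, stopped with acetic acid; rhodamine fluorescence read, IC50 by 4-parameter nonlinear fit.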

The mark [1] stands for this setting: 30-minute incubation with compound, read-out: Potency: USP7 IC50.
[2] abbreviates: 30-minute pre-incubation, read-out: Potency (USP7 IC50).

Where two headings read alike, the source gives them in different places.

T1 sequence (Q93009 whole entry): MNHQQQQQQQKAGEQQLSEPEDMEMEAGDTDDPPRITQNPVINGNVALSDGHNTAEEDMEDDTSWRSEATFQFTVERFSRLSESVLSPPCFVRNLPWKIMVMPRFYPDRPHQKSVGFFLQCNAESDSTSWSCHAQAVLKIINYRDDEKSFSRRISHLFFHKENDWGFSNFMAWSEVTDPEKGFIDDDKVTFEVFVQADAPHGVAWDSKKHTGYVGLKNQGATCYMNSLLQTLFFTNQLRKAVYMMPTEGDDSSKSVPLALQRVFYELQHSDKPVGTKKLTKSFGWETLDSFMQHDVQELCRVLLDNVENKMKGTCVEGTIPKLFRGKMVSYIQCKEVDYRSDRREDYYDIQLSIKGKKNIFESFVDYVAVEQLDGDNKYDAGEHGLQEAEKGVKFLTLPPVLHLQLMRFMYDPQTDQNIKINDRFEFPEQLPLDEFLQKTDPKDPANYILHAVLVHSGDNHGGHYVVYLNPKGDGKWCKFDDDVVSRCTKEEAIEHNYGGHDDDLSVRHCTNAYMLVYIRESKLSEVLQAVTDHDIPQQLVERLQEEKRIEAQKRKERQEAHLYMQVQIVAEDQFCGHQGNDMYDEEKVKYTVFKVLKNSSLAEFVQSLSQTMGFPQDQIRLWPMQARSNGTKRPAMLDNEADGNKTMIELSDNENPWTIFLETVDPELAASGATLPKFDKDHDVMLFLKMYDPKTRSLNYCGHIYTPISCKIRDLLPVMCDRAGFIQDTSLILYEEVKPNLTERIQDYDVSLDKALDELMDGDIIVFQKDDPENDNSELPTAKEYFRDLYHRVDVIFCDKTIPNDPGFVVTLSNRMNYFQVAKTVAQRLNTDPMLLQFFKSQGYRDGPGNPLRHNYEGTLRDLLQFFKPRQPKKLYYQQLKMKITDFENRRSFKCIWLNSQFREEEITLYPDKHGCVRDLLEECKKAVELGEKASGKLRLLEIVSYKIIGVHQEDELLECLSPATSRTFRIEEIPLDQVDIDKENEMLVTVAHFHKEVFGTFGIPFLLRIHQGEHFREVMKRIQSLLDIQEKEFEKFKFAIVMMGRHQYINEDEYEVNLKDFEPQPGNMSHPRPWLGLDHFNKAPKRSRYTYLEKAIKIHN

For orientation: IC50 means the concentration needed to halve the response being measured. As for `Cc1cc(Cl)cc(-c2ncnc3cc(CN4C(=O)CC(C)(C)C4=O)sc23)c1O[C@@H]1CNC[C@@H]1F` [Example 380, 1-[[4-[5-chloro-2-[(3R,4S)-4-fluoropyrrolidin-3-yl]oxy-3-methyl-phenyl]thieno[3,2-d]pyrimidin-6-yl]methyl]-3,3-dimethyl-pyrrolidine-2,5-dione; 2,2,2-trifluoroacetic acid], the IC50 under setting [1] is < 1 µM.

As for `Cc1cc(Cl)cc(-c2ccnc3cc(CN4C(=O)CCC4=O)sc23)c1O[C@@H]1CN[C@H](CO)C1` [Example 116, 1-((7-(5-Chloro-2-(((3S,5S)-5-(hydroxymethyl)pyrrolidin-3-yl)oxy)-3-methylphenyl)thieno[3,2-b]pyridin-2-yl)methyl)pyrrolidine-2,5-dione], the IC50 under setting [1] is < 1 µM.

Turning to `CCN1CC[C@@H](Oc2c(C)cc(Cl)cc2-c2ccnc3cc(CN4C(=O)C5CC5C4=O)sc23)[C@@H](C)C1` (stereo partly drawn) [Example 325, 3-[[7-[5-chloro-2-[[(3S,4R)-1-ethyl-3-methyl-4-piperidyl]oxy]-3-methyl-phenyl]thieno[3,2-b]pyridin-2-yl]methyl]-3-azabicyclo[3.1.0]hexane-2,4-dione], the IC50 under setting [1] was < 1 µM. `Cc1cc(Cl)cc(-c2ccnc3cc(CN4C(=O)CCC4=O)sc23)c1O[C@@H]1CC[C@@H](N)C1` [Example 126, 1-((7-(2-(((1R,3R)-3-Aminocyclopentyl)oxy)-5-chloro-3-methylphenyl)thieno[3,2-b]pyridin-2-yl)methyl)pyrrolidine-2,5-dione]: the IC50 under setting [1] was < 1 µM. The same measure, in the same setting: in the case of `Cc1cc(Cl)cc(-c2ccnc3cc(CN4C(=O)CCNC4=O)sc23)c1O[C@@H]1CNC[C@@H]1F` [Example 152, 3-((7-(5-Chloro-2-(((3R,4S)-4-fluoropyrrolidin-3-yl)oxy)-3-methylphenyl)thieno[3,2-b]pyridin-2-yl)methyl)dihydropyrimidine-2,4(1H,3H)-dione] it was < 1 µM; in that of `Cc1cc2nccc(-c3cc(Cl)ccc3OCC3CNC3)c2s1` [Example 28, 7-(2-(Azetidin-3-ylmethoxy)-5-chlorophenyl)-2-methylthieno[3,2-b]pyridine], 1 to 10 µM. As to `Cc1cc(Cl)cc(-c2ccnc3cc(Cn4c(=O)ccn(C)c4=O)sc23)c1OC1CCCNCC1F` (stereo not shown) [Example 471, 3-[[7-[5-chloro-2-(3-fluoroazepan-4-yl)oxy-3-methyl-phenyl]thieno[3,2-b]pyridin-2-yl]methyl]-1-methyl-pyrimidine-2,4-dione], the IC50 under setting [2] was < 1 µM. As for `Cc1cc(Cl)cc(-c2ccnc3cc(CN4C(=O)C5C(C4=O)C5(C)C)sc23)c1O[C@@H]1C[C@@H]2C[C@H]1N(C)C2` (stereo partly drawn) [Example 333, 3-[[7-[5-chloro-3-methyl-2-[[(1S,4R,5R)-3-methyl-3-azabicyclo[2.2.1]heptan-5-yl]oxy]phenyl]thieno[3,2-b]pyridin-2-yl]methyl]-6,6-dimethyl-3-azabicyclo[3.1.0]hexane-2,4-dione], the IC50 under setting [1] is < 1 µM.

As for `Cc1cc(Cl)cc(-c2ccnc3cc(Cn4c(=O)ccn(C)c4=O)sc23)c1O[C@H]1CCN(C)C[C@@H]1F` [Example 472, 3-[[7-[5-chloro-2-[[(3S,4S)-3-fluoro-1-methyl-4-piperidyl]oxy]-3-methyl-phenyl]thieno[3,2-b]pyridin-2-yl]methyl]-1-methyl-pyrimidine-2,4-dione; 2,2,2-trifluoroacetic acid], the IC50 under setting [2] was < 1 µM. As for `Cc1cc(Cl)cc(-c2ncnc3cc(Cn4c(=O)ccn(C(C)C)c4=O)sc23)c1OC1CC2CNC1C2` (stereo not shown) [Example 509, 3-[[4-[2-(3-azabicyclo[2.2.1]heptan-5-yloxy)-5-chloro-3-methyl-phenyl]thieno[3,2-d]pyrimidin-6-yl]methyl]-1-isopropyl-pyrimidine-2,4-dione], under setting [2], the IC50 is < 1 µM. Regarding `Cc1cc(Cl)cc(-c2ccnc3cc(CN4C(=O)CC5(CCC5)C4=O)sc23)c1O[C@H]1CCCNC1` [Example 317, 6-[[7-[5-chloro-3-methyl-2-[[(3S)-3-piperidyl]oxy]phenyl]thieno[3,2-b]pyridin-2-yl]methyl]-6-azaspiro[3.4]octane-5,7-dione; 2,2,2-trifluoroacetic acid], the IC50 under setting [1] was < 1 µM. On to `CCn1ccc(=O)n(Cc2cc3nccc(-c4cc(Cl)cc(C)c4O[C@@H]4CNC[C@@H]4F)c3s2)c1=O` [Example 452, 3-[[7-[5-chloro-2-[(3R,4S)-4-fluoropyrrolidin-3-yl]oxy-3-methyl-phenyl]thieno[3,2-b]pyridin-2-yl]methyl]-1-ethyl-pyrimidine-2,4-dione], for which, under setting [2], the IC50 is < 1 µM.

On to `Cc1cc(Cl)cc(-c2ncnc3cc(CN4C(=O)C5C(C4=O)C5(C)C)sc23)c1O[C@@H]1CCNC[C@@H]1F` (stereo partly drawn) [Example 377, 3-[[4-[5-chloro-2-[[(3S,4R)-3-fluoro-4-piperidyl]oxy]-3-methyl-phenyl]thieno[3,2-d]pyrimidin-6-yl]methyl]-6,6-dimethyl-3-azabicyclo[3.1.0]hexane-2,4-dione; 2,2,2-trifluoroacetic acid], for which the 50% inhibitory concentration (IC50) under setting [1] is < 1 µM. `Cc1cc(Cl)cc(-c2ccnc3cc(Cn4c(=O)ccn(CC(F)(F)F)c4=O)sc23)c1O[C@@H]1CN[C@@H](C)C1` [Example 632, 3-[[7-[5-chloro-3-methyl-2-[(3S,5S)-5-methylpyrrolidin-3-yl]oxy-phenyl]thieno[3,2-b]pyridin-2-yl]methyl]-1-(2,2,2-trifluoroethyl)pyrimidine-2,4-dione]: under setting [2], the IC50 is < 1 µM. Take `Cc1cc(Cl)cc(-c2ccnc3cc(Cn4c(=O)ccn(C)c4=O)sc23)c1O[C@@H]1CNC[C@@H](O)C1` [Example 500, 3-[[7-[5-chloro-2-[[(3S,5S)-5-hydroxy-3-piperidyl]oxy]-3-methyl-phenyl]thieno[3,2-b]pyridin-2-yl]methyl]-1-methyl-pyrimidine-2,4-dione]: the IC50 under setting [2] is < 1 µM. As to `Cc1cc(Cl)cc(-c2ccnc3cc(Cn4c(=O)ccn(CC(F)(F)F)c4=O)sc23)c1O[C@@H]1CN[C@H](C(C)(C)O)C1` [Example 634, 3-[[7-[5-chlloro-2-[(3S,5S)-5-(1-hydroxy-1-methyl-ethyl)pyrrolidin-3-yl]oxy-3-methyl-phenyl]thieno[3,2-b]pyridin-2-yl]methyl]-1-(2,2,2-trifluoroethyl)pyrimidine-2,4-dione], under setting [2], the IC50 is < 1 µM.

For the compound `Cc1cc(Cl)cc(-c2ccnc3cc(Cn4c(=O)ccn(C)c4=O)sc23)c1OC1CNCCC1(C)C` (stereo not shown) [Example 592, 3-[[7-[5-chloro-2-[(4,4-dimethyl-3-piperidyl)oxy]-3-methyl-phenyl]thieno[3,2-b]pyridin-2-yl]methyl]-1-methyl-pyrimidine-2,4-dione], under setting [2], the IC50 is < 1 µM. As for `Cc1cc(Cl)cc(-c2ccnc3cc(Cn4c(=O)ccn(C)c4=O)sc23)c1O[C@H]1CNCC[C@H]1C` [Example 588, 3-[[7-[5-chloro-3-methyl-2-[[(3R,4R)-4-methyl-3-piperidyl]oxy]phenyl]thieno[3,2-b]pyridin-2-yl]methyl]-1-methyl-pyrimidine-2,4-dione; 2,2,2-trifluoroacetic acid], under setting [2], the IC50 was < 1 µM. For `Cc1cc(Cl)cc(-c2ccnc3cc(CO)sc23)c1O[C@H]1CNC[C@H]1F` [Example 67, (7-(5-Chloro-2-(((3S,4R)-4-fluoropyrrolidin-3-yl)oxy)-3-methylphenyl)thieno[3,2-b]pyridin-2-yl)methanol], the IC50 under setting [1] was in the range of 10 to 30 µM.

Take `Cc1cc(Cl)cc(-c2ccnc3cc(CO)sc23)c1O[C@@H]1CN[C@@H](C)C1` [Example 60, (7-(5-Chloro-3-methyl-2-(((3S,5S)-5-methylpyrrolidin-3-yl)oxy)phenyl)thieno[3,2-b]pyridin-2-yl)methanol]: under setting [1], the IC50 is 10 to 30 µM.

With `Cc1cc(Cl)cc(-c2ccnc3cc(COc4nc(=O)ccn4CC(F)(F)F)sc23)c1O[C@H]1CNCC[C@H]1C` [Example 615, 2-[[7-[5-chloro-3-methyl-2-[[(3R,4R)-4-methyl-3-piperidyl]oxy]phenyl]thieno[3,2-b]pyridin-2-yl]methoxy]-1-(2,2,2-trifluoroethyl)pyrimidin-4-one], the IC50 under setting [2] is < 1 µM. As to `Cc1cc(Cl)cc(-c2ccnc3cc(Cn4c(=O)ccn(CC(F)(F)F)c4=O)sc23)c1OC1CC(N2CCC(F)(F)CC2)C1` (stereo not shown) [Example 668, 3-[[7-[5-chloro-2-[3-(4,4-difluoro-1-piperidyl)cyclobutoxy]-3-methyl-phenyl]thieno[3,2-b]pyridin-2-yl]methyl]-1-(2,2,2-trifluoroethyl)pyrimidine-2,4-dione; 2,2,2-trifluoroacetic acid], under setting [2], the IC50 was < 1 µM.

For `Cc1cc(C#N)cc(-c2ccnc3cc(Cn4c(=O)ccn(C)c4=O)sc23)c1OC1CCNCC1` [Example 454, 3-methyl-5-[2-[(3-methyl-2,6-dioxo-pyrimidin-1-yl)methyl]thieno[3,2-b]pyridin-7-yl]-4-(4-piperidyloxy)benzonitrile], the IC50 under setting [2] was < 1 µM.

Take `Cc1cc(Cl)cc(-c2ccnc3cc(Cn4c(=O)ccn(CC(F)(F)F)c4=O)sc23)c1OC1CN2CCC1CC2` (stereo not shown) [Example 594, 3-[[7-(5-chloro-3-methyl-2-quinuclidin-3-yloxy-phenyl)thieno[3,2-b]pyridin-2-yl]methyl]-1-(2,2,2-trifluoroethyl)pyrimidine-2,4-dione; 2,2,2-trifluoroacetic acid]: the IC50 under setting [2] is < 1 µM. For `Cc1cc(Cl)cc(-c2ncnc3cc(Cn4c(=O)ccn(CC(F)(F)F)c4=O)sc23)c1O[C@@H]1CCNC[C@@H]1C` [Example 520, 3-[[4-[5-chloro-3-methyl-2-[[(3S,4R)-3-methyl-4-piperidyl]oxy]phenyl]thieno[3,2-d]pyrimidin-6-yl]methyl]-1-(2,2,2-trifluoroethyl)pyrimidine-2,4-dione], the IC50 under setting [2] is < 1 µM.

These data come from patent publication US10722514B2 (FLX Bio, Inc., priority 2017, dated 2020).
